Test results reported in patent US20260232652A1, “COMBINATIONS OF DGK (DIACYLGLYCEROL KINASE) INHIBITORS” (priority 2023, published 2026).
Several values for one entry are separate records, joined by “and”; a condition that tells them apart may be missing. Identical values can stand only once. Entries after “also recorded” stand apart in the source; their conditions may differ.

Tests used:
MC38 tumor bearing mice = assay: MC38 tumor bearing mice, mean tumor volume (Example 7); assay type: in vivo; settings: DGKzeta inhibitor A′ 3 mg/kg QD p.o., TPP-15285 5 mg/kg BIW i.p.
From the text: (§1) While the antibody administration was started on day 7 after tumor inoculation, the DGK inhibitor treatment started two days later, on day 9 after tumor inoculation. This schedule was designed to allow the efficient depletion of the Tregs by the anti-mouse CCR8 surrogate antibody before the DGK inhibitor activates the T cells. […] While the antibody administration was started on day 7 after tumor inoculation, the DGK inhibitor treatment started two days later, on day 9 after tumor inoculation. This schedule was designed to allow the efficient depletion of the Tregs by the anti-mouse CCR8 surrogate antibody before the DGK inhibitor activates the T cells. […] While the antibody administration was started on day 7 after tumor inoculation, the DGKalpha and DGKzeta inhibitor treatment started two days later, on day 9 after tumor inoculation. This schedule was designed to allow the efficient depletion of the Tregs by the anti-mouse CCR8 surrogate antibody before the DGK inhibitor activates the T cells. […] The DGKalpha and DGKzeta inhibitor treatment started on day 9 after tumor inoculation.

[1] = system: Hepa 1-6 tumor bearing mice; assay: Hepa 1-6 tumor bearing mice, mean tumor volume (Example 8); assay type: in vivo; settings: DGKzeta inhibitor A′ 3 mg/kg QD p.o., TPP-15285 5 mg/kg BIW i.p.
From the text: as §1

[2] = system: MC38 syngeneic mouse tumor model; assay: MC38 syngeneic mouse tumor model, different dose combination ratios (Example 5); assay type: in vivo; settings: 3 mg/kg p.o. q.d. each (monotherapy, or 3 mg/kg + 3 mg/kg), day 25 after tumor inoculation
From the text: The objective of this study was to observe the effects of combination therapies with DGKzeta and/or DGKalpha inhibitors on the tumor volume in the MC38 syngeneic mouse tumor model upon different dose combination ratios. The following eight treatment groups are included: • 1. Vehicle • 2. […] Treatment was started on ~day 8 after tumor inoculation at ~80-100 mm^3 tumor volume. […] Day 25 after tumor inoculation).

Human PBMCs = assay: Activation of PBMC cells (CD25+ of CD8+ naïve T-cells, flow cytometry); assay type: cell-based
Protocol: In addition to the experimental determination according to the protocol provided below, said proportion of CD25+ cells withing the CD8+ naïve T-cells was simulated according to Meyer et al., 2019, Cell Systems 8, 97-108, Feb. 27, 2019.
The relative amount of activated (CD25+) naïve CD8 T cells were analyzed by flow cytometry. Non-stimulated cells served as negative control, cells stimulated with 30 ng/ml aCD3/aCD28/IgG were used as positive control.

human DGKzeta = target: T1, human DGKzeta (Homo sapiens, UniProt Q13574); assay: Human DGKzeta kinase activity inhibition assay (ADP-Glo); assay type: biochemical; settings: read-out: IC50 hDGKz
T1 construct: C-terminally FLAG-tagged, recombinant full-length human DGKζ; made in house; host or cells: baculovirus-infected insect cells
Protocol: Human diacylglycerol kinase zeta (DGKζ) inhibitory activity of compounds of the present invention was quantified employing the human DGKζ kinase activity assay as described in the following paragraphs. In essence, the enzyme activity was measured by quantification of the adenosine-di-phosphate (ADP) generated as a co-product of the enzyme reaction via the “ADP-Glo™ Kinase Assay” kit from the company Promega. This detection system works as follows: In a first step the adenosine-tri-phosphate (ATP) not consumed in the kinase reaction is quantitatively converted to cyclic adenosine-mono-phosphate (cAMP) employing an adenylate cyclase (“ADP-Glo-reagent”), then the adenylate cyclase is stopped and the ADP generated in the kinase reaction is converted to ATP, which subsequently generates in a luciferase-based reaction a glow-luminescence signal (“Kinase Detection Reagent”).
C-terminally FLAG-tagged, recombinant full-length human DGKζ (inhouse expressed in baculovirus infected insect cells, purified using anti-Flag pulldown and size exclusion chromatography) was used as enzyme. As an alternative, commercially available enzyme by Carnabio can be used. As substrate for the kinase, 1,2-dioleoyl-sn-glycerol, reconstituted in octyl-β-D-glucopyranoside micelles, was used. […] Then 35 volumes of 50 mM MOPS buffer (pH 7.4) were added to yield a solution of 0.28 mM 1,2 dioleoyl-sn-glycerol and 200 mM octyl-β-D-glucopyranoside, which was aliquoted, flash-frozen in liquid nitrogen, and stored at −20° C. until use.
For the assay 50 nl of a 100-fold concentrated solution of the test compound in dimethyl sulfoxide (DMSO, Sigma) was pipetted into either a white 1536-well or a white low-volume 384-well microtiter plate (both Greiner Bio-One, Frickenhausen, Germany). […] The concentration of DGKζ was adjusted depending of the activity of the enzyme lot and was chosen appropriate to have the assay in the linear range, a typical concentration is about 0.1 nM. The reaction was stopped by the addition of 2.5 μL of “ADP-Glo-reagent” (1 to 1.5 diluted with water) and the resulting mixture was incubated at 22° C. for 1 h to convert the ATP not consumed in the kinase reaction completely to cAMP. […] The amount of emitted light was taken as a measure for the amount of ADP generated and thereby for the activity of the DGKζ.

[3] = Day 0 (day 7 after tumor inoculation), DGKalpha inhibitor A 5 mg/kg QD p.o.
[4] = Day 4, DGKalpha inhibitor A 5 mg/kg QD p.o.
[5] = Day 7, DGKalpha inhibitor A 5 mg/kg QD p.o.
[6] = Day 11, DGKalpha inhibitor A 5 mg/kg QD p.o.
[7] = Day 14, DGKalpha inhibitor A 5 mg/kg QD p.o.
[8] = Day 18, DGKalpha inhibitor A 5 mg/kg QD p.o.
[9] = Day 0, DGKalpha inhibitor A 5 mg/kg QD p.o.
[10] = Day 20, DGKalpha inhibitor A 5 mg/kg QD p.o.

T1 sequence (Q13574 whole entry): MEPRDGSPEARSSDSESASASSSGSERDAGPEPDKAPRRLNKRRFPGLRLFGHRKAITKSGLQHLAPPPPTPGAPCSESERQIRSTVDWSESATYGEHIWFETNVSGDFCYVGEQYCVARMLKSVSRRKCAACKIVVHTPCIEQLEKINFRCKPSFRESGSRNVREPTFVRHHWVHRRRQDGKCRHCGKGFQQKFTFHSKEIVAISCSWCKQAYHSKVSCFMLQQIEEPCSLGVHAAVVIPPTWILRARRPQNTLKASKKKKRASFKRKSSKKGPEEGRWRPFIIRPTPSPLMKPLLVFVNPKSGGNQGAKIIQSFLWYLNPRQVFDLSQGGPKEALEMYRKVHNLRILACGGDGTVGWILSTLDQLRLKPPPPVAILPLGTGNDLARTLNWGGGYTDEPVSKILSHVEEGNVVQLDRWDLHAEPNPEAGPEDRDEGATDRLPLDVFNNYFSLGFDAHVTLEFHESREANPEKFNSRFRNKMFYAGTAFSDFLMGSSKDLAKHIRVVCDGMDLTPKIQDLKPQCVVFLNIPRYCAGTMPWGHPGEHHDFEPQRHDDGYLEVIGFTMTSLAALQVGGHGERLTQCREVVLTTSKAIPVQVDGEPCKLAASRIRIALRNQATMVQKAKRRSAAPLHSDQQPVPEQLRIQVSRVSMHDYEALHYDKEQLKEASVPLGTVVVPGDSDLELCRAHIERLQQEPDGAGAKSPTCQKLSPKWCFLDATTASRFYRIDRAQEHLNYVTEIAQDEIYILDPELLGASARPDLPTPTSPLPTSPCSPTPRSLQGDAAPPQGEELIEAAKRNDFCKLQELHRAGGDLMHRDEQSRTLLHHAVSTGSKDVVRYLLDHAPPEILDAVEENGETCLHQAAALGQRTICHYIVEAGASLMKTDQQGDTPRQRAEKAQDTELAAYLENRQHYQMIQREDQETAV

## Cc1ccc2oc(C3CCN(c4c(C(N)=O)c(=O)n(C)c5ccc(F)cc45)CC3)nc2c1 [DGKalpha inhibitor A, 6-fluoro-1-methyl-4-[4-(5-methyl-1,3-benzoxazol-2-yl)piperidin-1-yl]-2-oxo-1,2-dihydroquinoline-3-carboxamide]
MC38 tumor bearing mice; [3]
  Mean tumor volume: 91.74 mm^3
MC38 tumor bearing mice; [4]
  Mean tumor volume: 216.59 mm^3
MC38 tumor bearing mice; [5]
  Mean tumor volume: 483.4 mm^3
MC38 tumor bearing mice; [6]
  Mean tumor volume: 1057.04 mm^3
MC38 tumor bearing mice; [7]
  Mean tumor volume: 1585.28 mm^3
MC38 tumor bearing mice; [8]
  Mean tumor volume: 2961.81 mm^3
[1]; [9]
  Mean tumor volume: 88.99 mm^3
[1]; [4]
  Mean tumor volume: 186.75 mm^3
[1]; [5]
  Mean tumor volume: 321.40 mm^3
[1]; [6]
  Mean tumor volume: 461.93 mm^3
[1]; [7]
  Mean tumor volume: 569.94 mm^3
[1]; [8]
  Mean tumor volume: 787.30 mm^3
[1]; [10]
  Mean tumor volume: 957.86 mm^3
[2]
  inhibition of tumor growth: only moderate inhibition of tumor growth; also recorded: no single agent activity
Human PBMCs; unbound DGKai 0.024 nM, DGKzi 0 nM
  CD25+ of CD8+ naïve T-cells, Observed: 4.1% and 3.1% and 12%
Human PBMCs; unbound DGKai 0.24 nM, DGKzi 0 nM
  CD25+ of CD8+ naïve T-cells, Observed: 3.4% and 5.1% and 6.4%
Human PBMCs; unbound DGKai 2.4 nM, DGKzi 0 nM
  CD25+ of CD8+ naïve T-cells, Observed: 8.3% and 2.1% and 5%
Human PBMCs; unbound DGKai 24 nM, DGKzi 0 nM
  CD25+ of CD8+ naïve T-cells, Observed: 6.8% and 5.4% and 7.3%
Human PBMCs; unbound DGKai 72 nM, DGKzi 0 nM
  CD25+ of CD8+ naïve T-cells, Observed: 9% and 6.7% and 12%
Human DGKzeta
  IC50: 17.2 µM

## COc1ccc(C(=O)c2sc(N(c3ccc(F)cc3)[C@H](C)C(N)=O)nc2N)cc1 [DGKzeta inhibitor A′, (R)-2-(N-[4-amino-5-(4-methoxybenzoyl)thiazol-2-yl]-4-fluoro-anilino)propanamide]
MC38 tumor bearing mice; [3]
  Mean tumor volume: 91.65 mm^3
MC38 tumor bearing mice; [4]
  Mean tumor volume: 216.68 mm^3
MC38 tumor bearing mice; [5]
  Mean tumor volume: 480.5 mm^3
MC38 tumor bearing mice; [6]
  Mean tumor volume: 982.9 mm^3
MC38 tumor bearing mice; [7]
  Mean tumor volume: 1448.04 mm^3
MC38 tumor bearing mice; [8]
  Mean tumor volume: 2879.9 mm^3
[1]; [9]
  Mean tumor volume: 88.99 mm^3
[1]; [4]
  Mean tumor volume: 224.86 mm^3
[1]; [5]
  Mean tumor volume: 429.26 mm^3
[1]; [6]
  Mean tumor volume: 624.07 mm^3
[1]; [7]
  Mean tumor volume: 799.19 mm^3
[1]; [8]
  Mean tumor volume: 1001.75 mm^3
[1]; [10]
  Mean tumor volume: 1158.6 mm^3
[2]
  inhibition of tumor growth: only moderate inhibition of tumor growth
Human PBMCs; unbound DGKai 0 nM, DGKzi 0.037 nM
  CD25+ of CD8+ naïve T-cells, Observed: 2% and 3.2%
Human PBMCs; unbound DGKai 0 nM, DGKzi 0.37 nM
  CD25+ of CD8+ naïve T-cells, Observed: 1.7% and 1.6% and 4.2%
Human PBMCs; unbound DGKai 0 nM, DGKzi 3.7 nM
  CD25+ of CD8+ naïve T-cells, Observed: 6% and 4.9% and 6.4%
Human PBMCs; unbound DGKai 0 nM, DGKzi 11 nM
  CD25+ of CD8+ naïve T-cells, Observed: 15% and 10%
Human PBMCs; unbound DGKai 0 nM, DGKzi 37 nM
  CD25+ of CD8+ naïve T-cells, Observed: 29% and 18%
Human PBMCs; unbound DGKai 0 nM, DGKzi 111 nM
  CD25+ of CD8+ naïve T-cells, Observed: 34% and 25% and 35%
Human PBMCs; unbound DGKai 0 nM, DGKzi 370 nM
  CD25+ of CD8+ naïve T-cells, Observed: 32% and 44% and 31%
